From US20050064044A1, “GSK-3beta inhibitors in the treatment of bone-related diseases” (priority 2003, published 2005)
“Also recorded” adds a separate entry of the source.

Assays:
[1] = system: Wnt/β-catenin signalling (GSK-3β inhibition) in C3H10T1/2 cells; test: Wnt signalling luciferase reporter construct in C3H10T1/2 cells; type: cell-based; settings: C3H10T1/2 cells stimulated for 24 h; firefly normalized to Renilla luciferase; FIG. 1
Procedure: Whether inhibition of GSK-3β in C3H10T1/2 cells leads to Wnt/β-catenin signalling activation was investigated.
C3H10T1/2 cells were transiently transfected using Fugen6 (Boehringer) with a Wnt signalling luciferase reporter construct (van de Wetering et al., 1997). To assess transfection efficacy, 20 ng of pRL-TK (Promega) encoding a Renilla luciferase gene downstream of a minimal HSV-TK promoter was systematically added to the transfection mix. Cells were stimulated with LiCl or with NaCl for 24 h. Cells were lysated and luciferase assays were performed with the Dual Luciferase Assay Kit (Promega) according to the manufacturer's instructions. 10 μl of cell lysate was assayed first for firefly luciferase and then for Renilla luciferase activity. Firefly luciferase activity was normalized to Renilla luciferase activity.

[2] = system: C3H10T1/2 cells; test: Alkaline phosphatase (ALP) osteoblast differentiation marker in C3H10T1/2 cells; type: cell-based; settings: C3H10T1/2 cells stimulated for 48 h; ALP activity normalized for total protein; FIG. 2
Description: In vitro model used the pluripotent mesenchymal cell line C3H10T1/2 that is able to differentiate into osteoblasts when triggered with the right compound or protein. The ability of a compound to induce these C3H10T1/2 cells to differentiate into osteoblasts can be monitored by, for instance, measuring the expression of the osteoblast differentiation marker, alkaline phosphatase (ALP).
Whether inhibition of GSK-3β by LiCl in C3H10T1/2 cells leads to the expression of ALP was investigated.
C3H10T1/2 cells were stimulated with LiCl or with NaCl for 48 h. ALP activity was determined in cell lysates using Alkaline Phosphatase Opt kit (Roche Molecular Biochemicals). Cell lysates were analyzed for protein content using micro-BCA Assay kit (Pierce), and ALP activity was normalized for total protein concentration.

[3] = system: LRP5 knockout mice; test: Bone phenotype of LRP5 knockout mice, micro-CT tomodensitometric analysis of tibia; type: in vivo
Procedure: In vivo model uses LRP5 knock-out animals that show osteopenia phenotype resulting from the absence of the Wnt canonical signalling pathway, said signalling pathway involving GSK-3β. Thanks to this model, the effect of GSK-3β inhibitors on bone mass can be observed.
LRP5 knockout mouse model has been described as an osteopenic mouse model (Kato et al., 2002).
LiCl solution was prepared in distillated water at 55 mg/ml. Compound was administered by micropump Alzet (ref: 1002, Charles Rivers, France) to 2-3 week-old LRP5 knockout (KO) mice for 2 weeks. Tibia were prepared for tomographic analysis (Tomodensitometer Scanco μCT20, Basserdorf, Switszerland). Micro-CT scans of the metaphyseal tibia were performed at an isotropic resolution of 9 μm, to obtain trabecular bone structural parameters. Using a two- and three-dimensional model and a semiautomatic contouring algorithm, three-dimensional bone volume, bone surface, and trabecular thickness were determined (FIG. 6).
Statistical significance was determined by the ANOVA unpaired t'test.
Results of tomodensitometric analysis of metaphyseal trabecular part of tibia from 5 week-old and 4 week-old LRP5-KO mice treated with vehicle or LiCl (200 mg/kg/d) during 15 days are given in FIGS. 4 and 5, respectively.

[4] = 4 week-old LRP5-KO mice treated for 15 days, vs vehicle, FIG. 6B/6D
[5] = 4 week-old LRP5-KO mice, 200 mg/kg/d during 15 days, metaphyseal trabecular tibia, vs vehicle, FIG. 5
[6] = 5 week-old LRP5-KO mice, 200 mg/kg/d during 15 days, metaphyseal trabecular tibia, vs vehicle, FIG. 4

## [Cl-].[Li+] [LiCl, lithium]
[1]
  luciferase expression (Wnt-signalling luciferase reporter): able to activate luciferase expression
[2]
  expression of the ALP osteoblast differentiation marker: able to stimulate the expression of the ALP osteoblast differentiation marker
[3]; [4]
  bone volume, 3-D reconstruction of trabecular part of tibia: increase
  trabecular thickness, 3-D reconstruction of trabecular part of tibia: increase
[3]; [5]
  BV/TV (bone volume): significantly increase
  Tb.N (trabecular number): significantly increase
  Tb.Th (trabecular thickness): significantly increase
[3]; [6]
  BV/TV (bone volume): significantly increase
  Tb.N (trabecular number): significantly increase
[3]; LRP5-KO mice, FIGS. 4 and 5
  bone phenotype (osteopenia) of LRP5 knockout mice: partially reversed; also recorded: partly restored
